# Test results: ChEMBL document CHEMBL5113502, “Accommodation of ring C expanded deoxyvasicinone in the HDAC inhibitory pharmacophore culminates into a tractable anti-lung cancer agent and pH-responsive nanocarrier” (Eur J Med Chem, 2022)
# Active and inactive are the calls of the source. The calls are words filed in the database; no cut-off is given here.
# Tests used:
# A549 [1] = experiment: Induction of autophagy in human A549 cells by acridine orange and propidium iodide staining based fluorescence microscopic analysis; assay type: functional, cell-based; conditions: DDE = dose-dependent effect
# Histone deacetylase 4 = Histone deacetylase 4 (Homo sapiens, UniProt P56524); experiment: Inhibition of HDAC4 (unknown origin) by colorimetric method
# Chain of Histone deacetylase 4 (P56524 whole entry): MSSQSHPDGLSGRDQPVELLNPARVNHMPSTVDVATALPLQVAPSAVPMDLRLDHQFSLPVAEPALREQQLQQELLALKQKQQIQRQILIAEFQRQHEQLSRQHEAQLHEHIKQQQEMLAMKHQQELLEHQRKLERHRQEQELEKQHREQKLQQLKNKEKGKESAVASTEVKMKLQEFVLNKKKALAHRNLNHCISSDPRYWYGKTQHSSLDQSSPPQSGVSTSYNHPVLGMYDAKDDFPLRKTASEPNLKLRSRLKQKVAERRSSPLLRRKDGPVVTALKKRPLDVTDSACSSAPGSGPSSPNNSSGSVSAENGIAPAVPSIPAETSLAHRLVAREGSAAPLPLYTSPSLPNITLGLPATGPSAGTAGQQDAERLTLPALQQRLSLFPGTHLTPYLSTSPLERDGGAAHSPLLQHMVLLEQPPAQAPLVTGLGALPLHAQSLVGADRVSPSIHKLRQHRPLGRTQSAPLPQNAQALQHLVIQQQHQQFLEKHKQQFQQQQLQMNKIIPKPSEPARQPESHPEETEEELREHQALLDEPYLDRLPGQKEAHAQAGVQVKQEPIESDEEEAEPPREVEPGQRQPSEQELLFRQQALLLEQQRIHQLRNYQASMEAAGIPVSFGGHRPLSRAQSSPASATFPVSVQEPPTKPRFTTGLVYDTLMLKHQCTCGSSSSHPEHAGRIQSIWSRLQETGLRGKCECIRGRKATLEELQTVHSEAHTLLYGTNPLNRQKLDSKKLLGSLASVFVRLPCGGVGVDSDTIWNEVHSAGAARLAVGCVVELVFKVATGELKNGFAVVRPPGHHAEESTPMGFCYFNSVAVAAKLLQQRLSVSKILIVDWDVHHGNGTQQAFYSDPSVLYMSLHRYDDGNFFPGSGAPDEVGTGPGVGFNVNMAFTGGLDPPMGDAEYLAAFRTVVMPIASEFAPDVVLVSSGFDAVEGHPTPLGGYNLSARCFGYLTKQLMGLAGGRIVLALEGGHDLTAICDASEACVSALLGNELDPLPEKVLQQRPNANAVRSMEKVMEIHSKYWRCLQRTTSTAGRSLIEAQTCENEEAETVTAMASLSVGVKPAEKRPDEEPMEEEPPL
# A549 [2] = experiment: Downregulation of HDAC3 expression in human A549 cells at 0.1 to 1 uM after 24 hrs by Western blot analysis; assay type: functional, cell-based; conditions: dose 0.1-1 µM
# HOP-62 = experiment: Cytotoxicity against human HOP-62 cells assessed as cell viability after 48 hrs by MTT assay; assay type: functional, cell-based; conditions: HOP-62, 48 h
# A549 [3] = experiment: Inhibition of HDAC1/HDAC3/HDAC6 in human A549 cells assessed as increase in alpha-tubulin-ack40 level by Western blot analysis; assay type: cell-based
# Homo sapiens [4] = species on record: Homo sapiens; experiment: Selectivity index, ratio of IC50 for HDAC 7 (unknown origin) to IC50 for HDAC 3 (unknown origin)
# NCI-H727 = experiment: Cytotoxicity against human NCI-H727 cells assessed as cell viability after 48 hrs by MTT assay; assay type: functional, cell-based; conditions: NCI-H727, 48 h
# A549 [5] = experiment: Inhibition of HDAC1/HDAC3/HDAC6 in human A549 cells assessed as increase in H3 acK9 level by Western blot analysis; assay type: cell-based
# Homo sapiens [6] = species on record: Homo sapiens; experiment: Selectivity index, ratio of IC50 for HDAC 9 (unknown origin) to IC50 for HDAC 3 (unknown origin)
# Homo sapiens [7] = species on record: Homo sapiens; experiment: Selectivity index, ratio of IC50 for HDAC8 (unknown origin) to IC50 for HDAC 6 (unknown origin)
# Homo sapiens [8] = species on record: Homo sapiens; experiment: Selectivity index, ratio of IC50 for HDAC 4 (unknown origin) to IC50 for HDAC 1 (unknown origin)
# Histone deacetylase 1 = Histone deacetylase 1 (Homo sapiens, UniProt Q13547); experiment: Inhibition of HDAC1 (unknown origin) by colorimetric method
# Chain of Histone deacetylase 1 (Q13547 whole entry): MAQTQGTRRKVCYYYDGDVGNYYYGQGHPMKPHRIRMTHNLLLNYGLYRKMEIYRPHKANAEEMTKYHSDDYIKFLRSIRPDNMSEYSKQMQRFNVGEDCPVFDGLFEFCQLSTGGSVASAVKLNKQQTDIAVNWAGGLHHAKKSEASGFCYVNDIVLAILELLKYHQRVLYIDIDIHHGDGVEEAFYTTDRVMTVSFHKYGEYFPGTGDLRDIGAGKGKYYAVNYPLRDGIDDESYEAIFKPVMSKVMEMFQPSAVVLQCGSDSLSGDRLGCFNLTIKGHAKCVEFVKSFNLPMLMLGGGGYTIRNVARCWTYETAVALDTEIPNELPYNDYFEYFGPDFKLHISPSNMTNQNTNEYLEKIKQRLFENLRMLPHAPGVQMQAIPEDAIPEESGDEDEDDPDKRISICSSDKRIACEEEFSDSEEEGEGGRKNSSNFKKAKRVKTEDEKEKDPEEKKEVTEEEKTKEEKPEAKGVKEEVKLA
# A549 [9] = experiment: Induction of apoptosis in human A549 cells assessed as nuclear condensation at 0.1 to 1 uM after 24 hrs by fluorescence microscopic analysis; assay type: functional, cell-based; conditions: dose 0.1-1 µM
# Homo sapiens [10] = species on record: Homo sapiens; experiment: Selectivity index, ratio of IC50 for HDAC 2 (unknown origin) to IC50 for HDAC 3 (unknown origin)
# A549 [11] = experiment: Downregulation of HDAC6 expression in human A549 cells at 0.1 to 1 uM after 24 hrs by Western blot analysis; assay type: functional, cell-based; conditions: dose 0.1-1 µM
# Homo sapiens [12] = species on record: Homo sapiens; experiment: Selectivity index, ratio of IC50 for HDAC6 (unknown origin) to IC50 for HDAC 1 (unknown origin)
# Histone deacetylase 7 = target: T1, Histone deacetylase 7 (Homo sapiens, UniProt Q8WUI4); experiment: Inhibition of HDAC7 (unknown origin) by colorimetric method
# T1 sequence (Q8WUI4 whole entry): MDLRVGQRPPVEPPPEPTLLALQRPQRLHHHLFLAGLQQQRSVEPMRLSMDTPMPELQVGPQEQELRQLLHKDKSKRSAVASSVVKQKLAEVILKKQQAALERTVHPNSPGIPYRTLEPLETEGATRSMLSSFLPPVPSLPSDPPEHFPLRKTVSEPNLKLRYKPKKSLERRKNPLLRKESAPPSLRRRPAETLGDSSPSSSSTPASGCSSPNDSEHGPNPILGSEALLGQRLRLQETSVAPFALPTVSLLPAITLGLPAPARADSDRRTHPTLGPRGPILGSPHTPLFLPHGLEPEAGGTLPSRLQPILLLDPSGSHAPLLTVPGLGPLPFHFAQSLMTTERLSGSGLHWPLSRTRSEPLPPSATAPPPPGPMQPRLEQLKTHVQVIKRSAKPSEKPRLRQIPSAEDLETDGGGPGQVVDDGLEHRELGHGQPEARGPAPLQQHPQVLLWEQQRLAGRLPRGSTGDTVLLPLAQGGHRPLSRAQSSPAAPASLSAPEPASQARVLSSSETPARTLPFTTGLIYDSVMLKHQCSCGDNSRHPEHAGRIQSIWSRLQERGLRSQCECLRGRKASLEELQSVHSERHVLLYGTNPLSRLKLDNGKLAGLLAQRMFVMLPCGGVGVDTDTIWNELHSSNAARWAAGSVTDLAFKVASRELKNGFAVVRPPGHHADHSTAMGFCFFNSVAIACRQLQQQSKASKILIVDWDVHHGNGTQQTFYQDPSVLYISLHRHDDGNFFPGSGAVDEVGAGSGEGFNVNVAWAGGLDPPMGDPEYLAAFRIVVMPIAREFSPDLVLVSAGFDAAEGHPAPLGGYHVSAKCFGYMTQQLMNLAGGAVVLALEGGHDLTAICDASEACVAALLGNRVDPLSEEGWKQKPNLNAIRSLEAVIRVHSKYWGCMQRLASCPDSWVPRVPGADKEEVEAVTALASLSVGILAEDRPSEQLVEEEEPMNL
# Homo sapiens [13] = species on record: Homo sapiens; experiment: Selectivity index, ratio of IC50 for HDAC 2 (unknown origin) to IC50 for HDAC 1 (unknown origin)
# A549 [14] = experiment: Induction of apoptosis in human A549 cells assessed as […] deformation at 0.1 to 1 uM after 24 hrs by fluorescence microscopic analysis; assay type: functional, cell-based; conditions: dose 0.1-1 µM
# Homo sapiens [15] = species on record: Homo sapiens; experiment: Selectivity index, ratio of IC50 for HDAC7 (unknown origin) to IC50 for HDAC 6 (unknown origin)
# A549 [16] = experiment: Inhibition of colony formation in human A549 cells measured after 24 hrs; assay type: functional, cell-based; conditions: dose 0.1-1 µM, DDE = dose-dependent effect
# Homo sapiens [17] = species on record: Homo sapiens; experiment: Selectivity index, ratio of IC50 for HDAC9 (unknown origin) to IC50 for HDAC 1 (unknown origin)
# Histone deacetylase 3 = Histone deacetylase 3 (Homo sapiens, UniProt O15379); experiment: Inhibition of HDAC3 (unknown origin) by colorimetric method
# Chain of Histone deacetylase 3 (O15379 whole entry): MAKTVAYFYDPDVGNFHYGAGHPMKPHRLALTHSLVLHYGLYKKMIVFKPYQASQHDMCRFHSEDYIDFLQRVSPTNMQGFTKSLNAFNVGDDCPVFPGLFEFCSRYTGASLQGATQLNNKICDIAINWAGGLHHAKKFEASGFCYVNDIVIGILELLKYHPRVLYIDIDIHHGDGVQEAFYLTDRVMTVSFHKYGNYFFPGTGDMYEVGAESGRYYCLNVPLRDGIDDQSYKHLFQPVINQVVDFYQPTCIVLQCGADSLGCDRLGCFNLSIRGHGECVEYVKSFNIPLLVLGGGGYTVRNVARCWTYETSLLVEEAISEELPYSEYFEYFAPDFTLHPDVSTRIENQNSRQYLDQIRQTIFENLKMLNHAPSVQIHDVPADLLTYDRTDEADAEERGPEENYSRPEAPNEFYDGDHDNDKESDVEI
# Homo sapiens [18] = species on record: Homo sapiens; experiment: Selectivity index, ratio of IC50 for HDAC 8 (unknown origin) to IC50 for HDAC 3 (unknown origin)
# Homo sapiens [19] = species on record: Homo sapiens; experiment: Selectivity index, ratio of IC50 for HDAC 5 (unknown origin) to IC50 for HDAC 3 (unknown origin)
# Homo sapiens [20] = species on record: Homo sapiens; experiment: Selectivity index, ratio of IC50 for HDAC5 (unknown origin) to IC50 for HDAC 6 (unknown origin)
# A549 [21] = experiment: Cytotoxicity against human A549 cells assessed as cell viability after 48 hrs by MTT assay; assay type: functional, cell-based; conditions: A549, 48 h
# Homo sapiens [22] = species on record: Homo sapiens; experiment: Selectivity index, ratio of IC50 for HDAC 4 (unknown origin) to IC50 for HDAC 3 (unknown origin)
# A549 [23] = experiment: Induction of apoptosis in human A549 cells assessed as cell shrinkage at 0.1 to 1 uM after 24 hrs by fluorescence microscopic analysis; assay type: functional, cell-based; conditions: dose 0.1-1 µM
# Homo sapiens [24] = species on record: Homo sapiens; experiment: Selectivity index, ratio of IC50 for HDAC 1 (unknown origin) to IC50 for HDAC 3 (unknown origin)
# Histone deacetylase 2 = Histone deacetylase 2 (Homo sapiens, UniProt Q92769); experiment: Inhibition of HDAC2 (unknown origin) by colorimetric method
# Chain of Histone deacetylase 2 (Q92769 whole entry): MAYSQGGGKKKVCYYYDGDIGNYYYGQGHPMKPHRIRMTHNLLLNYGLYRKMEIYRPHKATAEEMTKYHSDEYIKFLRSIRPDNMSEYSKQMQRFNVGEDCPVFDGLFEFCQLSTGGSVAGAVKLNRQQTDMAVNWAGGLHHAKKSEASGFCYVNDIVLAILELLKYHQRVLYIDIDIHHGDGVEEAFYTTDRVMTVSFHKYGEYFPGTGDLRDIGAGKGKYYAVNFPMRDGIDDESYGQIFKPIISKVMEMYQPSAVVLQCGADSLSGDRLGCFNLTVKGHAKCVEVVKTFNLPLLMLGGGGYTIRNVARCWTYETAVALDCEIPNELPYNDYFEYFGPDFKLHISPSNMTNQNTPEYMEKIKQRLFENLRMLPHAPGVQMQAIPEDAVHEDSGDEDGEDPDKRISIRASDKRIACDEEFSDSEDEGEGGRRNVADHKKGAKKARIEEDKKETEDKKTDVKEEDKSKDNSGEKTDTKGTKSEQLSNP
# Homo sapiens [25] = species on record: Homo sapiens; experiment: Selectivity index, ratio of IC50 for HDAC 3 (unknown origin) to IC50 for HDAC 1 (unknown origin)
# Homo sapiens [26] = species on record: Homo sapiens; experiment: Selectivity index, ratio of IC50 for HDAC5 (unknown origin) to IC50 for HDAC 1 (unknown origin)
smiles,measurement,setting,value
O=C(/C=C/c1ccc(CNc2ccc3nc4n(c(=O)c3c2)CCCCC4)cc1)NO,Activity,A549 [1],Dde
same,IC50,Histone deacetylase 4,1630 nM
same,inhibition,A549 [2],Active
same,IC50,HOP-62,900 nM
same,inhibition,A549 [3],Active
same,Ratio IC50,Homo sapiens [4],59.6
same,IC50,NCI-H727,960 nM
same,inhibition,A549 [5],Active
same,Ratio IC50,Homo sapiens [6],63.1
same,Ratio IC50,Homo sapiens [7],13.7
same,Ratio IC50,Homo sapiens [8],32.7
same,IC50,Histone deacetylase 1,49.9 nM
same,Activity,A549 [9],Active
same,Ratio IC50,Homo sapiens [10],18.4
same,inhibition,A549 [11],Active
same,Ratio IC50,Homo sapiens [12],0.25
same,IC50,Histone deacetylase 7,4080 nM
same,Ratio IC50,Homo sapiens [13],25.2
same,Activity,A549 [14],Active
same,Ratio IC50,Homo sapiens [15],316
same,inhibition,A549 [16],Dde
same,Ratio IC50,Homo sapiens [17],86.6
same,IC50,Histone deacetylase 3,68.5 nM
same,Ratio IC50,Homo sapiens [18],2
same,Ratio IC50,Homo sapiens [19],9.01
same,Ratio IC50,Homo sapiens [20],47.8
same,IC50,A549 [21],855 nM
same,Ratio IC50,Homo sapiens [22],23.8
same,Activity,A549 [23],Active
same,Ratio IC50,Homo sapiens [24],0.72
same,IC50,Histone deacetylase 2,1260 nM
same,Ratio IC50,Homo sapiens [25],1.37
same,Ratio IC50,Homo sapiens [26],12.4
